According to US10406134B2, “Methods of treating an overweight subject” (Zafgen, Inc., priority 2010, dated 2019):

How the values were obtained:
[1] = 7-day oral weight loss study in diet-induced obese mice; format: in vivo, C57BL/6NTac mice; conditions: DIO mice; for weight change over the course of the study: 1.0 mg/kg oral once a day for 7 days
Method: A weight loss study was conducted in obese mice. The mice in this study were not genetically obese, but prior to and during the study, obesity was induced by a high-fat diet. Twelve week-old C57BL/6NTac mice, maintained on a 60% fat diet prior to and during the study, were separated into seven groups, eight animals per group. Average body weight of the mice was approximately 47 g at the start of the study.
Each of six groups was orally administered 1.0 mg/kg of a compound ([…] compounds B. C, D, E, F and G as disclosed herein), in 10% gelucire in deoinised water. Each of these six groups was administered a different compound. One group was orally administered fumagillin at 1.0 mg/kg (group 201) in 10% gelucire in deoinised water, and one group was administered 10% gelucire in deoinised water (vehicle). Mice received administrations once a day for 7 days.
(Data analyzed by ANCOVA with body weight on Day 1 as covariate followed by multiple tests against vehicle group: *p<0.05; **p<0.01, ***p<0.001.)
A weight loss study was conducted in obese mice, similar to Example 5. Twelve week-old C57BL/6NTac mice, maintained on a 60% fat diet prior to and during the study, were separated into seven groups, eight animals per group. Average body weight of the mice was approximately 47 g at the start of the study.
The group was orally administered […] of a compound H, in 10% gelucire in deoinised water. Mice received administrations once a day for 7 days. After 7 days, the average weight loss of the mice was 13.2%.

[2] = 14-day treatment of high fat diet-fed C57BL/6 mice, body weight and food intake; format: in vivo; conditions: 1 mg/kg
Method: High fat diet-fed C57BL/6 mice were treated with 1 mg/kg of the MetAP2 inhibitor fumagillin (ZGN-201, squares) or vehicle (diamonds) for 14 days (FIG. 10). Body weights (left panel) were determined daily, while food intake (right panel) was assessed every other day by measuring the food consumed by each cage of three mice over the two day period. Data shown in FIG. 10 are means±SEM, n=9 animals. […] First, during the initial two to three days of treatment, no overt changes in food intake or body weight are observed. During this time period key changes in MetAP2 substrates occur, including glyceraldehyde-3-phosphate dehydrogenase and thioredoxin (data not shown). Second, the animals enter a period of rapid weight loss that proceeds until essentially all excess fat deposits are consumed. During this second period, fat oxidation is enhanced and food intake is inhibited.
Weight loss following treatment with therapeutically relevant doses of MetAP2 inhibitors stops once animals attain a normal body composition. […] This third phase can be maintained indefinitely provided the drug is continued (see FIG. 10), or presumably can be maintained in practice through other complementary pharmacologic, dietary, or lifestyle interventions.

[3] = 10-day oral gavage in C57BL/6 mice conditioned on a high fat diet; format: in vivo; conditions: 0.3 or 3 mg/kg daily oral gavage, 10 days
Description: (§1) Oral administration of the MetAP2 inhibitor fumagillin causes an increase in circulating ketone bodies, as measured by concentration of beta hydroxybutyrate, which indicates an increase in the breakdown of stored fat.

[4] = 28-day oral gavage in high fat diet C57BL/6 mice, fat and lean tissue change; format: in vivo; conditions: 0.1 or 0.3 mg/kg oral gavage, 28 days
Method: C57BL/6 mice were conditioned on a low-fat diet (LF), a high fat diet (HF), or a high-fat diet and treated with fumagillin (ZGN-201) administered by oral gavage at doses of 0.1 or 0.3 mg/kg for 28 days. […] To determine whether the weight loss resulted from loss of fat or loss of lean tissue, the percentage change in fat tissue and lean tissue was determined for LF mice, HF mice, HF mice treated with 0.1 mg/kg fumagillin, and HF mice treated with 0.3 mg/kg fumagillin.
Upon histological examination, the studies of treated obese mice show no effect on growth of new blood vessels in growing fat depots and no effect on blood vessel size or density when compared to animals in which weight loss has been induced by simple energy (food) restriction.

TXN in Cos-1 cells = assay: FLAG-tagged TXN expression in transfected Cos-1 cells (gel); format: cell-based
Method: (§2) EC50 of fumagillin to increase TXN levels is <10 nM.

[5] = Oral glucose tolerance test (OGTT) in overweight dogs; format: in vivo
Method: (§3) The effects of an 8 week treatment with ZGN-201 (ZGN) on body weight and metabolic parameters in 6 overweight dogs (3 HFF and 3 chow-fed (OWC)) were evaluated. The study was comprised of three phases—pretreatment (PT: 4 weeks), treatment (ZGNTx: 8 weeks), and washout (WO: 4 weeks). FI, BW, blood chemistry and hematology, beta-hydroxybutyrate (BHB), and glycerol were assessed weekly. Oral glucose tolerance tests (OGTT, 0.9 g/kg initial BW) were performed at the end of PT, ZGNTx, and WO.

[6] = 8 week oral treatment in overweight dogs, body weight and metabolic parameters; format: in vivo
Method: as §3, with “The study was comprised of three phases—pretreatment (PT: 4 weeks), treatment (ZGNTx: 8 weeks), and washout (WO: 4 weeks).” left out

TXN in 293T cells = assay: FLAG-tagged TXN expression in transfected 293T cells (gel); format: cell-based; conditions: 293T cells transfected with FLAG-tagged TXN
Method: as §2

[7] = 250-day diet admixture in C57BL/6 mice conditioned on a high fat diet; format: in vivo
Method: as §1
In addition to showing an increase in beta hydroxybutyrate concentration, C57BL/6 mice conditioned on a high fat diet and treated with fumagillin (ZGN-201) as a diet admixture (1 mg/kg daily for 250 days) also experienced a reduction in body fat by approximately 40 percent (FIG. 6). Once attaining the maximum weight reduction, mice treated daily with 1 mg/kg fumagillin maintained a weight that was 25% less than that of age-matched mice maintained on normal mouse chow diet (lean mice, FIG. 6) for the duration of the experiment.
Adipose tissue in mice fed a high-fat diet show distinctive crown-like structures not seen in lean mice. These crown-like structures were also absent from the adipose tissue of fumagillin-treated mice.

[8] = tested on: Thioredoxin-1 (TXN) in B16F10 cells; assay: N-terminal chymotryptic fragments of TXN measured by LC/MS in B16F10 cells treated with fumagillin; format: cell-based
Method: B16F10 cells were treated with increasing concentrations of fumagillin. N-terminal chymotryptic fragments of TXN were measured by liquid chromatography/mass spectrometry (LC/MS). […] The EC50 of fumagillin to increase Met-TXN acetylated Met-TXN levels is <10 nM.

[9] = High-fat high fructose dogs, WO
[10] = High-fat high fructose dogs, ZGNTx
[11] = diet admixture 1 mg/kg daily, 250 days

CO[C@@H]1[C@H](OC(=O)N[C@@H](C(N)=O)C(C)C)CC[C@]2(CO2)[C@H]1[C@@]1(C)O[C@@H]1CC=C(C)C [B]
weight change over the course of the study [1]: lost weight

CO[C@@H]1[C@H](OC(=O)NCCC2CCCN2C)CC[C@]2(CO2)[C@H]1[C@@]1(C)O[C@@H]1CC=C(C)C (some centres unmarked) [C]
weight change over the course of the study [1]: lost weight

CCN(CC)C/C=C\c1ccccc1S(=O)(=O)Nc1ccc2c(c1C(=O)O)CCCC2 [H]
average weight loss ([1]; 100.0 mg/kg oral once a day, after 7 days): 13.2%

CO[C@@H]1[C@H](OC(=O)/C=C/C=C/C=C/C=C/C(=O)O)CC[C@]2(CO2)[C@H]1[C@@]1(C)O[C@@H]1CC=C(C)C [fumagillin]
food intake during period of rapid weight loss ([2]; 14 days, second phase): inhibited
food intake after weight loss reaches a nadir ([2]; third phase): returns to normal levels
beta hydroxybutyrate concentrations [3]: increase
free fatty acid concentration [3]: without an increase
body weight [4]: reduction in body weight down to the level of low fat fed mice
reduction in fat ([4]; HF mice): 40-50%
reduction in lean tissue ([4]; HF mice): 5-10%
EC50 (TXN in Cos-1 cells; Chlorocebus aethiops, FIG. 4 gel, cell line (Cos-1 or 293T) not specified, read-out: EC50 to increase TXN levels): < 0.01 µM
expression of TXN (TXN in Cos-1 cells; Cos-1 cells transfected with FLAG-tagged TXN): significantly increased
reduction in insulin secretion (C-peptide AUC) ([5]; end of 8 week treatment, OGTT): 32%
reversal of the abnormality in the plasma glucose excursion during the OGTT ([5]; end of 8 week treatment, OGTT 0.9 g/kg): 75%
improvement in plasma glucose after the drug was washed out ([5]; end of washout, OGTT): completely reversed
reduction of FI ([6]; HFF dogs): 29%
loss of body weight ([6]; HFF dogs, daily oral, 8 weeks): approximately 8%
loss of excess BW ([6]; HFF dogs, daily oral, 8 weeks): 81%
weight loss sustained after discontinuation of treatment ([6]; HFF dogs, eight to ten weeks following discontinuation): approximately one half of the initial weight loss was sustained
BHB [6, 9]: 39 ± 7 µM
FI [6, 9]: 1657 ± 147 kcal/day
Glycerol [6, 9]: 66 ± 25 µM
BW ([6]; High-fat high fructose dogs, WO (4 weeks washout)): 31.7 ± 2.9 kg
BHB [6, 10]: 76 ± 9 µM
FI [6, 10]: 1187 ± 258 kcal/day
Glycerol [6, 10]: 131 ± 54 µM
BW ([6]; High-fat high fructose dogs, ZGNTx (8 weeks treatment)): 30.8 ± 3.4 kg
reduction of FI ([6]; OWC dogs): 9%
weight gain ([6]; OWC dogs, daily oral, 8 weeks): inhibited weight gain
BHB ([6]; Overweight chow dogs, WO): 44 ± 5 µM
BW ([6]; Overweight chow dogs, WO): 18.6 ± 0.7 kg
FI ([6]; Overweight chow dogs, WO): 1116 ± 22 kcal/day
Glycerol ([6]; Overweight chow dogs, WO): 86 ± 33 µM
BHB ([6]; Overweight chow dogs, ZGNTx): 48 ± 11 µM
BW ([6]; Overweight chow dogs, ZGNTx): 17.8 ± 0.5 kg
FI ([6]; Overweight chow dogs, ZGNTx): 1255 ± 64 kcal/day
Glycerol ([6]; Overweight chow dogs, ZGNTx): 143 ± 26 µM
BHB levels ([6]; overweight dogs, treatment): increased in HFF only
glycerol levels ([6]; overweight dogs, treatment): increased
expression of TXN (TXN in 293T cells): significantly increased
retroperitoneal fat pad weight ([7]; 1 mg/kg daily, 250 days): more similar to that of age-matched lean mice
size and appearance of epididymal fat, peri-renal fat and liver ([7]; 1 mg/kg daily, 250 days): more similar to that of age-matched lean mice
maintained weight less than that of age-matched lean mice on normal chow ([7]; 1 mg/kg daily, after maximum weight reduction): 25%
fasted glucose and insulin levels, insulin-glucose product ([7]; 1 mg/kg, high fat diet mice): more similar to that of age-matched lean mice
hydroxybutyrate concentration at longer time points [7, 11]: Increased hydroxybutyrate concentration persisted
reduction in body fat [7, 11]: approximately 40%
adipocyte size ([7]; high fat diet mice): more similar to that of age-matched lean mice
crown-like structures in adipose tissue ([7]; high fat diet mice): absent
sensitivity to insulin ([7]; mice on a high fat diet): normalizes sensitivity to insulin
weight change over the course of the study [1]: lost the most weight
EC50 ([8]; Mus musculus, B16-F10, read-out: EC50 to increase Met-TXN acetylated Met-TXN levels): < 0.01 µM
accumulation of N-acetyl TXN(1-4) ([8]; increasing concentrations): significant accumulation
cellular level of TXN containing an intact N-terminal methionine [TXN(1-4)] ([8]; increasing concentrations): significantly increased
